Experiment [1] addresses T1, EGFR (Homo sapiens, UniProt P00533).
T1 construct: host or cells: A431
Put plainly: EGFR in-cell Western (ICW) screening protocol (EGFR inhibition assay). In kind it is cell-based. The note with it: for ICW assay: Table 10, % Inhibition of EGF dependent EGFR phosphorylation in A431 cells, compound 125 μM in assay. Summed up:
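Serum-starved A431 cells (2 h) were pretreated with compound for 4 h at 37° C, then stimulated with EGF (10 ng/ml final, or 6.6 or 12.5 ng/ml in some runs) for 10 min. After formaldehyde fixation, phospho-EGFR (Tyr1173, or Tyr1045 in some runs) and total EGFR were detected by in-cell Western immunostaining.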

Experiment [2] deals with MDBK line. As to the kind of experiment: MTT Cell Proliferation Assay, MDBK cells. The format is cell-based, bovine. The note with it: for pIC50: second value of 'a/b (c)', taken as MDBK cells, read-out: MTT Screen, second value of cell; for IC50: Table 10, second of x/y(ratio): MDBK, three day treatment, unit not printed (doses in μM), read-out: MTT assay (second value). Summed up: (§1)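 Viability was measured by mitochondrial MTT reduction after cells were exposed to compound for 3 days in reduced-serum medium. Inhibition was calculated per plate against 0.5% DMSO controls.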
A general note: Formazan colour is commonly taken as a measure of viable cells.

The subject of experiment [3] is epithelial carcinoma A431 cell line. Put plainly: MTT Cell Proliferation Assay, A431 cells. In kind it is cell-based. The note with it: for pIC50: taken as A431 cells, read-out: MTT Screen, first value of cell; for IC50: Table 10, first of x/y(ratio): A431, three day treatment, unit not printed (doses in μM), read-out: MTT assay (first value). Summed up:
as §1

Setting [4] is: Homo sapiens, A-431, first value of 'a/b (c)'.

pIC50: −log10 of the molar value. Read-outs that look alike come from different tables or passages of the source.

T1 sequence (P00533 25-1210): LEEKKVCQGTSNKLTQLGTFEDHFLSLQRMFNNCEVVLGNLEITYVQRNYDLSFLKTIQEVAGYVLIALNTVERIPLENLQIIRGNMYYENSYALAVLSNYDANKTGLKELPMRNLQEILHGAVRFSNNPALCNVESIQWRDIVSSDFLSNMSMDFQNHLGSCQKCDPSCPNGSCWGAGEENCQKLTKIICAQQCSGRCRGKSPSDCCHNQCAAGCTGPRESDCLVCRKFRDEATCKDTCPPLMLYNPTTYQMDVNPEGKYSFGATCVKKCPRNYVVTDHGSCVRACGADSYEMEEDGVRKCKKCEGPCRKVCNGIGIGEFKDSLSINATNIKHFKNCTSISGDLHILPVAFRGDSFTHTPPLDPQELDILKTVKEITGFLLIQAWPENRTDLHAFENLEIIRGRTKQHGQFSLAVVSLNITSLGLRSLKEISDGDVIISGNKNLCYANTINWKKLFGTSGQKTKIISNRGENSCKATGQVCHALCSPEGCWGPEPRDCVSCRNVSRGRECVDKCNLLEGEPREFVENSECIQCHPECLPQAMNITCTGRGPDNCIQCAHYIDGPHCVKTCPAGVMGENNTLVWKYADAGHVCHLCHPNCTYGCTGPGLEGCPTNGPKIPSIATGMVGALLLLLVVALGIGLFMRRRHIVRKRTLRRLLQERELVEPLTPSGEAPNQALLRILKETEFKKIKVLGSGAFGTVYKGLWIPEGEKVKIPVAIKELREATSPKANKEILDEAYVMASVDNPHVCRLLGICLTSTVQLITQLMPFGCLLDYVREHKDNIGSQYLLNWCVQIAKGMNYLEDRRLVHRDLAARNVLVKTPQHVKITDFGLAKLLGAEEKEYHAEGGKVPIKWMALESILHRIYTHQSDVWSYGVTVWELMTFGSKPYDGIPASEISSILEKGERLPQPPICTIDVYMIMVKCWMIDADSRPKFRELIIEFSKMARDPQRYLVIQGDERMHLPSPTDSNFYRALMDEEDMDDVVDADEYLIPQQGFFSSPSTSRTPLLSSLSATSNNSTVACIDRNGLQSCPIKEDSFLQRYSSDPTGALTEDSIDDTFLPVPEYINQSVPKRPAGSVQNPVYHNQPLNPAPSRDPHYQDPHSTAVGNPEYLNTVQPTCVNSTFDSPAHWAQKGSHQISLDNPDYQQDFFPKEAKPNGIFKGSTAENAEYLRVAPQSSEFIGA

`CN(c1ccccc1)S(=O)(=O)c1ccc(NC(=S)NC(=O)/C=C/c2ccc(F)cc2)cc1` [AD4-12280]: the “ICW Screen (ICW Inhibition)” value in experiment [1] is 41.439. In addition, the pIC50 in experiment [2] (Bos taurus, MDBK) is 4.75; in experiment [2] it was 4.67; in experiment [3] (setting [4]), 4.99; in experiment [3] (first value of 'a/b (c)'), 5.24.

`CC1CCN(S(=O)(=O)c2ccc(NC(=S)NC(=O)C3CC3)cc2)CC1` [AD4-12286]: in experiment [1], the “ICW Screen (ICW Inhibition)” value is given as 26.829. Moreover, the pIC50 is 4.52 in experiment [2] (Bos taurus, MDBK) and 4.81 in experiment [3] (setting [4]).

For the compound `CCN(c1ccccc1)S(=O)(=O)c1ccc(NC(=S)Nc2ccccc2)cc1` [AD4-12389], the ICW assay in experiment [1] came to 72.5659. Further, the IC50 in experiment [2] came out at 6.07 µM; in experiment [3] it was 12.2 µM.

Compound `CC(=O)c1cccc(NC(=S)Nc2ccc(S(=O)(=O)Nc3c(C)cc(C)cc3C)cc2)c1` [AD4-12391] came in with an ICW assay in experiment [1] of 37.4191. Also, the IC50 stood at 9.09 µM in experiment [2] (Bos taurus, MDBK, 72 h) and 11.1 µM in experiment [3] (Homo sapiens, A-431, 72 h).

For the compound `Cc1cc(C)c(NS(=O)(=O)c2ccc(NC(=S)Nc3ccccc3F)cc2)c(C)c1` [AD4-12395], the ICW assay in experiment [1] came out at 57.5206. In addition, the IC50 in experiment [2] (Bos taurus, MDBK, 72 h) was found to be 6.96 µM; in experiment [3] (Homo sapiens, A-431, 72 h) it was 7.92 µM.

Turning to `Cc1ccc(NC(=S)Nc2ccc(S(=O)(=O)Nc3cc(Cl)cc(Cl)c3)cc2)cc1C` [AD4-12400], the ICW assay in experiment [1] is 69.4793. Further, the IC50 was 5.77 µM in experiment [2] (Bos taurus, MDBK, 72 h) and 4.05 µM in experiment [3] (Homo sapiens, A-431, 72 h).

In the case of `CCC(C)c1ccc(NC(=S)Nc2ccc(S(=O)(=O)Nc3c(C)cc(C)cc3C)cc2)cc1` (stereo not shown) [AD4-12403], the ICW assay in experiment [1] worked out at 50.7196. Moreover, the IC50 turned out to be 5.3 µM in experiment [2] (Bos taurus, MDBK, 72 h) and 4.03 µM in experiment [3] (Homo sapiens, A-431, 72 h).

`COc1cccc(NC(=S)Nc2ccc(S(=O)(=O)Nc3ccc(Cl)cc3)cc2)c1` [AD4-12411] came in with an ICW assay in experiment [1] of 34.0556. For the same compound, the IC50 worked out at 5.18 µM in experiment [2] (Bos taurus, MDBK, 72 h) and 6.7 µM in experiment [3] (Homo sapiens, A-431, 72 h).

In turn, `Cc1ccc(NC(=S)Nc2ccc(S(=O)(=O)Nc3ccc(Cl)cc3)cc2)cc1` [AD4-12413] showed an ICW assay in experiment [1] of 35.1946. Further, the IC50 was determined as 6.35 µM in experiment [2] (Bos taurus, MDBK, 72 h) and 6.83 µM in experiment [3] (Homo sapiens, A-431, 72 h).

In turn, `O=S(=O)(Nc1ccc(Cl)cc1)c1ccc(NC(=S)Nc2cccc(C(F)(F)F)c2)cc1` [AD4-12423] displayed an ICW assay in experiment [1] of 129.155. Further, the IC50 stood at 5.77 µM in experiment [2] (Bos taurus, MDBK, 72 h); 2.92 µM in experiment [2]; 6.35 µM in experiment [3] (Homo sapiens, A-431, 72 h); 4.23 µM in experiment [3].

In turn, `CC(C)c1ccc(NC(=S)Nc2ccc(S(=O)(=O)Nc3cc(Cl)cc(Cl)c3)cc2)cc1` [AD4-12424] showed an ICW assay in experiment [1] of 82.3761. Further, the IC50 in experiment [2] (Bos taurus, MDBK, 72 h) turned out to be 4.73 µM; in experiment [3] (Homo sapiens, A-431, 72 h) it was 4.08 µM.

`CCc1ccc(NC(=S)Nc2ccc(S(=O)(=O)Nc3ccc(Cl)c(Cl)c3)cc2)cc1` [AD4-12430] had an ICW assay in experiment [1] of 82.0877. Further, the IC50 in experiment [2] (Bos taurus, MDBK, 72 h) was 5.54 µM; in experiment [3] (Homo sapiens, A-431, 72 h), 4.07 µM.

`O=S(=O)(Nc1ccc(Cl)c(Cl)c1)c1ccc(NC(=S)Nc2cccc(F)c2)cc1` [AD4-12431]: in experiment [1], the ICW assay worked out at 26.7815. In addition, the IC50 in experiment [2] (Bos taurus, MDBK, 72 h) came to 5.57 µM; in experiment [3] (Homo sapiens, A-431, 72 h) it was 6.4 µM.

`COc1ccc(NS(=O)(=O)c2ccc(NC(=S)Nc3ccc(OC)c(OC)c3)cc2)cc1` [AD4-12433]: the ICW assay in experiment [1] amounted to 54.4095. The IC50 in experiment [2] (Bos taurus, MDBK, 72 h) is 38.5 µM; in experiment [3] (Homo sapiens, A-431, 72 h), 29.1 µM.

Regarding `O=S(=O)(Nc1ccc(Cl)cc1)c1ccc(NC(=S)Nc2ccccc2C(F)(F)F)cc1` [AD4-12435], the ICW assay in experiment [1] was 41.4281. For the same compound, the IC50 in experiment [2] (Bos taurus, MDBK, 72 h) came to 6.15 µM; in experiment [3] (Homo sapiens, A-431, 72 h), 6.67 µM.

As to `CCc1ccc(NC(=S)Nc2ccc(S(=O)(=O)Nc3cc(Cl)cc(Cl)c3)cc2)cc1` [AD4-12436], in experiment [1], the ICW assay was found to be 108.826. The IC50 in experiment [2] (Bos taurus, MDBK, 72 h) worked out at 5.53 µM; in experiment [3] (Homo sapiens, A-431, 72 h), 5.47 µM.

In turn, `Cc1ccc(NC(=S)Nc2ccc(S(=O)(=O)Nc3ccc(Cl)c(Cl)c3)cc2)cc1` [AD4-12438] registered an ICW assay in experiment [1] of 53.245. Moreover, the IC50 in experiment [2] (Bos taurus, MDBK, 72 h) worked out at 5.9 µM; in experiment [3] (Homo sapiens, A-431, 72 h) it was 5.69 µM.

`Cc1cccc(NC(=S)Nc2ccc(S(=O)(=O)Nc3ccc(Cl)c(Cl)c3)cc2)c1` [AD4-12442] registered an ICW assay in experiment [1] of 79.1185. Moreover, the IC50 in experiment [2] (Bos taurus, MDBK, 72 h) was found to be 5.76 µM; in experiment [3] (Homo sapiens, A-431, 72 h), 5.59 µM.

For `CCOc1ccccc1NC(=S)Nc1ccc(S(=O)(=O)Nc2ccc(Cl)c(Cl)c2)cc1` [AD4-12443], the ICW assay in experiment [1] is recorded as 44.7896. The IC50 in experiment [2] (Bos taurus, MDBK, 72 h) came to 6.91 µM; in experiment [3] (Homo sapiens, A-431, 72 h), 6.71 µM.

`Cc1ccc(NC(=S)Nc2ccc(S(=O)(=O)Nc3cc(Cl)cc(Cl)c3)cc2)cc1` [AD4-12460] showed an ICW assay in experiment [1] of 42.5115. In addition, the IC50 in experiment [2] (Bos taurus, MDBK, 72 h) came out at 5.61 µM; in experiment [3] (Homo sapiens, A-431, 72 h) it was 6.33 µM.

The compound `Cc1cc(C)cc(NC(=S)Nc2ccc(S(=O)(=O)Nc3cc(Cl)cc(Cl)c3)cc2)c1` [AD4-12461] returned an ICW assay in experiment [1] of 53.1391. Moreover, the IC50 in experiment [2] (Bos taurus, MDBK, 72 h) was found to be 5.91 µM; in experiment [3] (Homo sapiens, A-431, 72 h), 4.06 µM.

The compound `CCOc1ccccc1NC(=S)Nc1ccc(S(=O)(=O)Nc2c(C)cc(C)cc2C)cc1` [AD4-12465] came in with an ICW assay in experiment [1] of 31.3476. Besides, the IC50 in experiment [2] (Bos taurus, MDBK, 72 h) is 6.54 µM; in experiment [3] (Homo sapiens, A-431, 72 h) it was 9.92 µM.

For `CCC(C)c1ccc(NC(=S)Nc2ccc(S(=O)(=O)Nc3ccc(OC)cc3)cc2)cc1` (stereo not shown) [AD4-12468], the ICW assay in experiment [1] turned out to be 77.7928. Moreover, the IC50 in experiment [2] (Bos taurus, MDBK, 72 h) is 5.41 µM; in experiment [3] (Homo sapiens, A-431, 72 h) it was 4.04 µM.

`Cc1cccc(NC(=S)Nc2ccc(S(=O)(=O)Nc3cc(Cl)cc(Cl)c3)cc2)c1` [AD4-12472] had an ICW assay in experiment [1] of 64.2647. Moreover, the IC50 in experiment [2] (Bos taurus, MDBK, 72 h) is 5.42 µM; in experiment [3] (Homo sapiens, A-431, 72 h) it was 6.23 µM.

`Cc1ccccc1NS(=O)(=O)c1ccc(NC(=S)Nc2ccc(F)c(Cl)c2)cc1` [AD4-12477]: in experiment [1], the ICW assay amounted to 44.2167. Besides, the IC50 stood at 5.44 µM in experiment [2] (Bos taurus, MDBK, 72 h) and 6.65 µM in experiment [3] (Homo sapiens, A-431, 72 h).

`COc1ccc(NC(=S)Nc2ccc(S(=O)(=O)Nc3cc(Cl)cc(Cl)c3)cc2)cc1OC` [AD4-12481] displayed an ICW assay in experiment [1] of 42.006. In addition, the IC50 is 11 µM in experiment [2] (Bos taurus, MDBK, 72 h) and 10.4 µM in experiment [3] (Homo sapiens, A-431, 72 h).

Regarding `COc1cc(NC(=S)Nc2ccc(S(=O)(=O)Nc3cc(Cl)cc(Cl)c3)cc2)cc(OC)c1` [AD4-12482], in experiment [1], the ICW assay stood at 28.3382. Further, the IC50 was determined as 6.05 µM in experiment [2] (Bos taurus, MDBK, 72 h) and 6.54 µM in experiment [3] (Homo sapiens, A-431, 72 h).

Regarding `COc1ccc(C)cc1NC(=S)Nc1ccc(S(=O)(=O)Nc2ccc(Cl)cc2)cc1` [AD4-12485], the ICW assay in experiment [1] came to 33.3993. Besides, the IC50 stood at 7.19 µM in experiment [2] (Bos taurus, MDBK, 72 h) and 6.98 µM in experiment [3] (Homo sapiens, A-431, 72 h).

Turning to `Cc1ccccc1NS(=O)(=O)c1ccc(NC(=S)Nc2cccc(C(F)(F)F)c2)cc1` [AD4-12487], the ICW assay in experiment [1] was determined as 84.5602. Moreover, the IC50 in experiment [2] (Bos taurus, MDBK, 72 h) came to 5.5 µM; in experiment [3] (Homo sapiens, A-431, 72 h), 6.45 µM.

As to `O=S(=O)(Nc1ccc(Cl)cc1)c1ccc(NC(=S)Nc2cccc(Cl)c2)cc1` [AD4-12494], in experiment [1], the ICW assay is given as 112.965. Besides, the IC50 in experiment [2] (Bos taurus, MDBK, 72 h) amounted to 5.71 µM; in experiment [3] (Homo sapiens, A-431, 72 h), 5.64 µM.

As to `COc1ccc(C)cc1NC(=S)Nc1ccc(S(=O)(=O)Nc2cc(Cl)cc(Cl)c2)cc1` [AD4-12499], in experiment [1], the ICW assay is listed as 26.0767. Moreover, the IC50 in experiment [2] (Bos taurus, MDBK, 72 h) was 6.58 µM; in experiment [3] (Homo sapiens, A-431, 72 h) it was 6.99 µM.

`CCCCc1ccc(NC(=S)Nc2ccc(S(=O)(=O)Nc3ccc(Cl)cc3)cc2)cc1` [AD4-12501] had an ICW assay in experiment [1] of 71.3823. Further, the IC50 in experiment [2] (Bos taurus, MDBK, 72 h) was found to be 4.06 µM; in experiment [3] (Homo sapiens, A-431, 72 h), 4.06 µM.

The values are drawn from US20140179681A1, “METHODS AND COMPOSITIONS OF TARGETED DRUG DEVELOPMENT” (priority 2010, published 2014).
